What was measured:
[1] = in vivo; settings: male, SD, rat, 0.05 mg/kg; for level at 72 h: Plasma Conc. at 72 h; for level at 96 h: Plasma Conc. at 96 h
Protocol: B) half‐life (T1/2). C) the maximum plasma concentration (Cmax). […] F) time to Maximum Concentration (Tmax). […] Data were analyzed with the two‐sided Student's unpaired t test. ^* p < 0.05, ^** p < 0.01, ^*** p < 0.001.
Plasma samples were analyzed using LC‐MS/MS (Waters XEVO TQ‐XS), and pharmacokinetic parameters such as T1/2, Cmax, Tmax, AUC0‐t, and MRT0‐t were calculated using WinNonlin. The sample preparation and detailed information of LC‐MS/MS are shown in Table S5 (Supporting Information).

[2] = rat, in vivo; cited from earlier work
Source text: According to a study by Novo Nordisk,^[ [39] ^] […] While the fatty acid chai ...

CC[C@H](C)[C@H](NC(=O)[C@H](Cc1ccccc1)NC(=O)[C@H](CCC(=O)O)NC(=O)[C@H](CCCCNC(=O)COCCOCCNC(=O)COCCOCCNC(=O)CC[C@H](NC(=O)CCCCCCCCCCCCCCCCC(=O)O)C(=O)O)NC(=O)[C@H](C)NC(=O)[C@H](C)NC(=O)[C@H](CCC(N)=O)NC(=O)CNC(=O)[C@H](CCC(=O)O)NC(=O)[C@H](CC(C)C)NC(=O)[C@H](Cc1ccc(O)cc1)NC(=O)[C@H](CO)NC(=O)[C@H](CO)NC(=O)[C@@H](NC(=O)[C@H](CC(=O)O)NC(=O)[C@H](CO)NC(=O)[C@@H](NC(=O)[C@H](Cc1ccccc1)NC(=O)[C@@H](NC(=O)CNC(=O)[C@H](CCC(=O)O)NC(=O)C(C)(C)NC(=O)[C@@H](N)Cc1cnc[nH]1)[C@@H](C)O)[C@@H](C)O)C(C)C)C(=O)N[C@@H](C)C(=O)N[C@@H](Cc1c[nH]c2ccccc12)C(=O)N[C@@H](CC(C)C)C(=O)N[C@H](C(=O)N[C@@H](CCCNC(=N)N)C(=O)NCC(=O)N[C@@H](CCCNC(=N)N)C(=O)NCC(=O)O)C(C)C [Semaglutide]
level at 2 h ([1]; Plasma Conc. at 2 h, animal 1): 241 ng/mL | level at 2 h ([1]; Plasma Conc. at 2 h, animal 2): 262 ng/mL | level at 2 h ([1]; Plasma Conc. at 2 h, animal 3): 272 ng/mL | level at 4 h ([1]; Plasma Conc. at 4 h, animal 1): 308 ng/mL | level at 4 h ([1]; Plasma Conc. at 4 h, animal 2): 275 ng/mL | level at 4 h ([1]; Plasma Conc. at 4 h, animal 3): 339 ng/mL | level at 8 h ([1]; Plasma Conc. at 8 h, animal 1): 321 ng/mL | level at 8 h ([1]; Plasma Conc. at 8 h, animal 2): 327 ng/mL | level at 8 h ([1]; Plasma Conc. at 8 h, animal 3): 341 ng/mL | level at 12 h ([1]; Plasma Conc. at 12 h, animal 1): 283 ng/mL | level at 12 h ([1]; Plasma Conc. at 12 h, animal 2): 278 ng/mL | level at 24 h ([1]; Plasma Conc. at 24 h, animal 1): 133 ng/mL | level at 24 h ([1]; Plasma Conc. at 24 h, animal 2): 135 ng/mL | level at 48 h ([1]; Plasma Conc. at 48 h, animal 1): 12.9 ng/mL | level at 48 h ([1]; Plasma Conc. at 48 h, animal 2): 13.4 ng/mL | level at 72 h ([1]; animal 1): 1.5 ng/mL | level at 72 h ([1]; animal 2): 1.8 ng/mL | level at 96 h ([1]; animal 1): 1 ng/mL | level at 96 h ([1]; animal 2): 0.3 ng/mL | level at 2 h ([1]; Plasma concentration at 2 h (mean)): 258 ng/mL | level at 4 h ([1]; Plasma concentration at 4 h (mean)): 307 ng/mL | level at 8 h ([1]; Plasma concentration at 8 h (mean)): 330 ng/mL | level at 12 h ([1]; Plasma concentration at 12 h (mean)): 280 ng/mL | level at 24 h ([1]; Plasma concentration at 24 h (mean)): 132 ng/mL | level at 48 h ([1]; Plasma concentration at 48 h (mean)): 13.9 ng/mL | half‐life in rats (literature) [2]: 7 to 8 h
